The text below walks through data of patent US5232930A, “2-heteroaryl-substituted benzodioxoic having 5-lipoxygenase inhibitory activity” (Imperial Chemical Industries PLC, priority 1991, dated 1993).

pIC50: −log10 of the molar value.

Assay [1] concerns the target T1, 5-LO (Homo sapiens, UniProt P09917).
T1 construct: incubating a test compound with heparinised human blood, prior to challenge with the calcium ionophore A23187; from tissue; host or cells: heparinised human blood (endogenous enzyme of the blood cells)
T1 sequence (P09917 1-674): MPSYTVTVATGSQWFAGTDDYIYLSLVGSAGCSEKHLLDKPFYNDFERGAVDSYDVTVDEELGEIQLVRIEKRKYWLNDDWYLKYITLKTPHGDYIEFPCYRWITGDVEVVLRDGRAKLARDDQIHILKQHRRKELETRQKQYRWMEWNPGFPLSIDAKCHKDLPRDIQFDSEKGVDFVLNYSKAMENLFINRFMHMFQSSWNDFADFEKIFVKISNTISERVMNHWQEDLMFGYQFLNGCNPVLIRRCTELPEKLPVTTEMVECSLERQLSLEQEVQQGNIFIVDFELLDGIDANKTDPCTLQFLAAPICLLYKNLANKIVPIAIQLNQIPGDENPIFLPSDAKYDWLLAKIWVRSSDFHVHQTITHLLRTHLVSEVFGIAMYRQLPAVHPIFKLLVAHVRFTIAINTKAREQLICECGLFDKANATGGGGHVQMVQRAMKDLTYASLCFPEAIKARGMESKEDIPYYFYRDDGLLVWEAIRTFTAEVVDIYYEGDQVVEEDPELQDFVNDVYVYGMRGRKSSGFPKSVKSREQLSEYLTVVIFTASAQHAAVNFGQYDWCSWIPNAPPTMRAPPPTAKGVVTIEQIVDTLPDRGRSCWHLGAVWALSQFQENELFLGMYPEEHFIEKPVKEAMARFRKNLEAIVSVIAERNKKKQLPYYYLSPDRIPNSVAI
Description: test a) in vitro heparinised human blood, calcium ionophore A23187 challenge, LTB4 radioimmunoassay. The class given is cell-based. The procedure:
(§1) As stated previously, the benzodioxole derivatives of the formula I are inhibitors of the enzyme 5-LO.
a) An in vitro assay system involving incubating a test compound with heparinised human blood, prior to challenge with the calcium ionophore A23187 and the indirectly measuring the inhibitory effects on 5-LO by assaying the amount of LTB4 using specific radioimmunoassays described by Carey and Forder (F. Carey and R.A. Forder, Prostaglandins Leukotrienes Med., 1986, 22, 57; Prostaglandins, 1984, 28, 666; Brit. J. Pharmacol. 1985, 84, 34P) which involve the use of a protein-LTB4 conjugate produced using the procedure of Young et alia (Prostaglandins, 1983, 26(4), 605-613). The effects of a test compound on the enzyme cyclooxygenase (which is involved in the alternative metabolic pathway for arachidonic acid and gives rise to prostaglandins, thromboxanes and related metabolites) may be measured at the same time using the specific radioimmunoassay for thromboxane B2 (T×B2) described by Carey and Forder (see above). This test provides an indication of the effects of a test compound against 5-LO and also cyclooxygenase in the presence of blood cells and proteins. It permits the selectivity of the inhibitory effect on 5-LO or cyclooxygenase to be assessed.

Assay [2] deals with T2, 5-LO (Rattus norvegicus, UniProt P12527).
T2 construct: liberation of LTB4 induced by zymosan within an air pouch generated within the subcutaneous tissue of the back of male rats; from tissue; host or cells: live male rats, zymosan-inflamed subcutaneous air pouch (endogenous enzyme)
T2 sequence (P12527 1-673): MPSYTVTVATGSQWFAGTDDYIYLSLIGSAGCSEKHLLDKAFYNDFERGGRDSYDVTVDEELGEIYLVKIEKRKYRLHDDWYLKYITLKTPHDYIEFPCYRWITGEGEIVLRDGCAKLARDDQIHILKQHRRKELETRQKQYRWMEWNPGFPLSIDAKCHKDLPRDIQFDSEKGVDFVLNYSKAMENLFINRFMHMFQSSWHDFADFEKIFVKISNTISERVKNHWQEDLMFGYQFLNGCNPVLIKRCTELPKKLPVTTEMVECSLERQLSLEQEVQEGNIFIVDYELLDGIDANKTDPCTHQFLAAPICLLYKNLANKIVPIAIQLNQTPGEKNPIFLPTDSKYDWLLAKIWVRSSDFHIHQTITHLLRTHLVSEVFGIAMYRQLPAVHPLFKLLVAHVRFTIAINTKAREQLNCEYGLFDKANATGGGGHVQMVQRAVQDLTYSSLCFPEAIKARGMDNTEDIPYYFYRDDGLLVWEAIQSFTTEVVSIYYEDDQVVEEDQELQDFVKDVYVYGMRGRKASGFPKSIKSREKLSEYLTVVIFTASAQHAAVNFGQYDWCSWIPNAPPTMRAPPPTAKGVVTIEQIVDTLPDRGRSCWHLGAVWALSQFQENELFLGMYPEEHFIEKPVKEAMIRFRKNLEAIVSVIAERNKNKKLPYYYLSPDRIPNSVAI
Description: test c) in vivo zymosan-induced LTB4 liberation in rat air pouch. The conditions noted are these: oral, male rats, 3 hours. As to the method:
as §1
c) An in vivo system involving measuring the effects of a test compound administered orally against the liberation of LTB4 induced by zymosan within an air pouch generated within the subcutaneous tissue of the back of male rats. The rats are anaesthetised and air pouches are formed by the injection of sterile air (20 ml). A further injection of air (10 ml) is similarly given after 3 days. At 6 days after the initial air injection the test compound is administered (usually orally as the suspension produced when a solution of the test compound in dimethylsulphoxide is added to hydroxypropylmethylcellulose), followed by the intrapouch injection of zymosan (1 ml of a 1% suspension in physiological saline). After 3 hours the rats are killed, the air pouches are lavaged with physiological saline, and the specific radioimmunoassay described above is used to assay LTB4 in the washings. This test provides an indication of inhibitory effects against 5-LO in an inflammatory milieu.

Take `COC1(c2ccc3c(c2)OC(c2ccc4c(ccc(=O)n4C)c2)O3)CCOCC1` (centres unmarked) [5-(4-methoxytetrahydropyran-4-yl)-2-(1-methyl-2-oxo-1,2-dihydroquinolin-6-yl)benzo-1,3-dioxole]: the negative logarithm of the IC50 (pIC50) at 5-LO [1] is 6.42. For the same compound, the 50% effective dose (ED50) on 5-LO [2] was < 0.5 mg/kg.
